Measurements as given in patent US10975077B2 (Novira Therapeutics, Inc., priority 2016, dated 2021).
pEC50: −log10 of the molar value.

Tested on: HBV (encapsidated HBV DNA, HepG2.2.15 cells)
Experiment: HBV replication inhibition assay, BDNA assay in HepG2.2.15 cells
Assay type: cell-based
Procedure, shortened: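 HepG2.2.15 cells (stably integrated HBV, 40,000/well) treated with serially diluted compound in 0.5% DMSO for 6 days, medium and compound refreshed at day 3. DNase-treated supernatant lysed with proteinase K; encapsidated HBV DNA quantified by bDNA, percent inhibition versus DMSO controls, EC50 by nonlinear fit.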

[1] = Hepatitis B virus, HepG2.2.15, Activity in BDNA-assay

With `CCC(O)C1CN(C)C(=O)c2c3c(nn2C1)CC(C)N(C(=O)Nc1ccc(F)c(C#N)c1)C3` [Compound 108_D2, (3R,8R*)—N-(3-cyano-4-fluorophenyl)-8-((R)-1-hydroxypropyl)-3,10-dimethyl-11-oxo-1,3,4,7,8,9,10,11-octahydro-2H-pyrido[4′,3′:3,4]pyrazolo[1,5-a][1,4]diazepine-2-carboxamide] as the compound, how does the pEC50 (Activity in BDNA-assay) read?
The pEC50 was 6.30 to 7.00.

`CN1CC(F)Cn2nc3c(c2C1=O)CN(C(=O)Nc1ccnc(Br)c1F)CC3` (centres unmarked) [Compound 008, N-(2-bromo-3-fluoropyridin-4-yl)-8-fluoro-10-methyl-11-oxo-1,3,4,7,8,9,10,11-octahydro-2H-pyrido[4′,3′:3,4]pyrazolo[1,5-a][1,4]diazepine-2-carboxamide] was tested. Which pEC50 [1] did it give?
The pEC50 was 7.00 to 9.00.

`CN1CC(F)Cn2nc3c(c2C1=O)CN(C(=O)Nc1ccc(F)c(Br)c1)CC3` (centres unmarked) [Compound 007, N-(3-bromo-4-fluorophenyl)-8-fluoro-10-methyl-11-oxo-1,3,4,7,8,9,10,11-octahydro-2H-pyrido[4′,3′:3,4]pyrazolo[1,5-a][1,4]diazepine-2-carboxamide] was tested. Which pEC50 [1] did it give?
Its pEC50 is 7.00 to 9.00.

With `C[C@@H]1Cc2nn3c(c2CN1C(=O)Nc1cc(Cl)c(F)cc1F)C(=O)N(CC(F)F)CCC3` [Compound 078, (R)—N-(5-chloro-2,4-difluorophenyl)-10-(2,2-difluoroethyl)-3-methyl-11-oxo-1,3,4,7,8,9,10,11-octahydro-2H-pyrido[4′,3′:3,4]pyrazolo[1,5-a][1,4]diazepine-2-carboxamide] as the compound, how does the pEC50 [1] read?
The pEC50 was 6.30 to 7.00.

How did the pEC50 [1] turn out when `CN1CC(CNCC(F)F)Cn2nc3c(c2C1=O)CN(C(=O)Nc1ccc(F)c(Br)c1)CC3` (single isomer, unassigned) [Compound 130_E1, (R*)—N-(3-bromo-4-fluorophenyl)-8-(((2,2-difluoroethyl)amino)methyl)-10-methyl-11-oxo-1,3,4,7,8,9,10,11-octahydro-2H-pyrido[4′,3′:3,4]pyrazolo[1,5-a][1,4]diazepine-2-carboxamide] was run?
Its pEC50 is 7.00 to 9.00.

With `CN1CC(O)(CO)Cn2nc3c(c2C1=O)CN(C(=O)Nc1ccc(F)c(Cl)c1)CC3` (centres unmarked) [Compound 003] as the compound, how does the pEC50 [1] read?
The pEC50 was 6.00 to 6.30.

`C[C@@H]1Cc2nn3c(c2CN1C(=O)Nc1ccc(F)c(Cl)c1)C(=O)N(CC(F)F)CC(CO)C3` (single isomer, unassigned) [Compound 092_D2, (3R,8 S*)—N-(3-chloro-4-fluorophenyl)-10-(2,2-difluoroethyl)-8-(hydroxymethyl)-3-methyl-11-oxo-1,3,4,7,8,9,10,11-octahydro-2H-pyrido[4′,3′:3,4]pyrazolo[1,5-a][1,4]diazepine-2-carboxamide] was tested. Which pEC50 (Activity in BDNA-assay) did it give?
The pEC50 was 7.00 to 9.00.

With `C[C@@H]1Cc2nn3c(c2CN1C(=O)Nc1ccc(F)c(C#N)c1)C(=O)N(CC(F)F)CCC3` [Compound 076, (R)—N-(3-cyano-4-fluorophenyl)-10-(2,2-difluoroethyl)-3-methyl-11-oxo-1,3,4,7,8,9,10,11-octahydro-2H-pyrido[4′,3′:3,4]pyrazolo[1,5-a][1,4]diazepine-2-carboxamide] as the compound, how does the pEC50 [1] read?
The pEC50 was 7.00 to 9.00.

`C[C@@H]1Cc2nn3c(c2CN1C(=O)Nc1ccc(F)c(C#N)c1F)C(=O)N(C)CC(CO)C3` (single isomer, unassigned) [Compound 088_D2, (3R,8R*)—N-(3-cyano-2,4-difluorophenyl)-8-(hydroxymethyl)-3,10-dimethyl-11-oxo-1,3,4,7,8,9,10,11-octahydro-2H-pyrido[4′,3′:3,4]pyrazolo[1,5-a][1,4]diazepine-2-carboxamide] was tested. Which pEC50 (Activity in BDNA-assay) did it give?
The pEC50 was 7.00 to 9.00.

`CN1C(=O)c2c3c(nn2CCC1(C)CO)CCN(C(=O)Nc1ccc(F)c(Cl)c1)C3` (centres unmarked) [Compound 061, N-(3-chloro-4-fluorophenyl)-9-(hydroxymethyl)-9,10-dimethyl-11-oxo-1,3,4,7,8,9,10,11-octahydro-2H-pyrido[4′,3′:3,4]pyrazolo[1,5-a][1,4]diazepine-2-carboxamide] was tested. Which pEC50 [1] did it give?
Its pEC50 is 7.00 to 9.00.

With `CN1CCCn2nc3c(c2C1)CN(C(=O)Nc1ccc(F)c(Cl)c1)CC3` [Compound 046, N-(3-chloro-4-fluorophenyl)-10-methyl-1,3,4,7,8,9,10,11-octahydro-2H-pyrido[4′,3′:3,4]pyrazolo[1,5-a][1,4]diazepine-2-carboxamide] as the compound, how does the pEC50 [1] read?
The pEC50 was < 6.00.
